Test results: ChEMBL document CHEMBL1133639, “Subtype-selective N-methyl-D-aspartate receptor antagonists: synthesis and biological evaluation of 1-(heteroarylalkynyl)-4-benzylpiperidines” (J Med Chem, 2000)

Key:
[1] = target: Glutamate receptor ionotropic, NMDA 1 (Homo sapiens, UniProt Q05586); experiment: Concentration required for 50% Inhibition of responses at cloned NR1A/2AB NMDA expressed in Xenopus oocytes; type: cell-based, Oocyte
[2] = target: Glutamate receptor ionotropic, NMDA 1 (Homo sapiens, UniProt Q05586+Q14957); experiment: Concentration required for 50% Inhibition of responses at cloned NR1A/2C NMDA expressed in Xenopus oocytes; type: cell-based, Oocyte
[3] = target: Glutamate receptor ionotropic, NMDA 1 (Homo sapiens, UniProt Q05586+Q12879); experiment: Concentration required for 50% Inhibition of responses at cloned NR1A/2A NMDA expressed in Xenopus oocytes; type: cell-based, Oocyte
[4] = target: Glutamate receptor ionotropic, NMDA 2C (Rattus norvegicus, UniProt P35439+Q00961); experiment: Concentration required for 50% Inhibition of responses at cloned NR1A/2C N-methyl-D-aspartate (NMDA) expressed in Xenopus oocytes; type: cell-based, Oocyte
Glutamate receptor ionotropic, NMDA 2C, sequence (Q00961 whole entry, one chain of several): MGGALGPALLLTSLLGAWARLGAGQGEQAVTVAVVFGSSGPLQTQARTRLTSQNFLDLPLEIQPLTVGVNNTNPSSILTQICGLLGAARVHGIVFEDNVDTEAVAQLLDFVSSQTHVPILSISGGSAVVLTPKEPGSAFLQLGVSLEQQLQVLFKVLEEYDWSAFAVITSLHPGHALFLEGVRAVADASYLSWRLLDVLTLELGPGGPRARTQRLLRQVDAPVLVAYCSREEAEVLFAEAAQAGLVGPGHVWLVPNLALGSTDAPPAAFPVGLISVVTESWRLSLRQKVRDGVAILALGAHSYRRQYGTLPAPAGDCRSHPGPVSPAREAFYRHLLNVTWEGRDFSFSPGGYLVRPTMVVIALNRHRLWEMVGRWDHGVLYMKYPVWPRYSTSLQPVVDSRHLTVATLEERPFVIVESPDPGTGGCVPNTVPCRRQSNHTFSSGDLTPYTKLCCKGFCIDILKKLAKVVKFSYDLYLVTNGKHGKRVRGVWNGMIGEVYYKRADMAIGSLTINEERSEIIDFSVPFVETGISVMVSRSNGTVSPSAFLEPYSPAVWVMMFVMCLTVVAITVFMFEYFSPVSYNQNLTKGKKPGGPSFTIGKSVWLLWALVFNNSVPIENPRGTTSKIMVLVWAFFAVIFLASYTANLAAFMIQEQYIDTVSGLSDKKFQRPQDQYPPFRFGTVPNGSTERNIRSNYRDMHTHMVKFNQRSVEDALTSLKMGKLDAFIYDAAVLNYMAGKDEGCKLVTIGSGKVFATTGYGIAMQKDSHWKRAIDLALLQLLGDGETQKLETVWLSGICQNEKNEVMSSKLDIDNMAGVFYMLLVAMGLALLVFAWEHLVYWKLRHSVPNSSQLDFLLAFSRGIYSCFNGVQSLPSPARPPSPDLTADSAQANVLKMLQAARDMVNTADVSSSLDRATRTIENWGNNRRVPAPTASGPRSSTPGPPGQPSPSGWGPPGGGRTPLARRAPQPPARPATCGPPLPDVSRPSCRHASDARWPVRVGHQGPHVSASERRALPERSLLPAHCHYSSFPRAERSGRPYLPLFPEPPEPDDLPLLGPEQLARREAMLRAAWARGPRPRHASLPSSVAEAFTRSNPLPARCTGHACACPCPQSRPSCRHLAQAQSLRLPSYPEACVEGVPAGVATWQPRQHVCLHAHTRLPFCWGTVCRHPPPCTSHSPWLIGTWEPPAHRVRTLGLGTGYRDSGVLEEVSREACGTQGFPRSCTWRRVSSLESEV

Rattus norvegicus [5] = experiment: Lowest oral dose that shows significant potentiation of total contraversive rotations over 3 hr caused by L-DOPA (10mg/kg, sc) in 6-hydroxydopamine-lesioned rats (n=8)administered perorally; type: functional; conditions: read-out: MED
[6] = target: T1, Adrenergic receptor alpha-1 (Rattus norvegicus, UniProt P15823+P23944+P43140); experiment: Displacement of [3H]prazosin at alpha-1 adrenergic receptor in rat brain cortices (n=1); type: tissue-based
T1 sequence (P15823 whole entry): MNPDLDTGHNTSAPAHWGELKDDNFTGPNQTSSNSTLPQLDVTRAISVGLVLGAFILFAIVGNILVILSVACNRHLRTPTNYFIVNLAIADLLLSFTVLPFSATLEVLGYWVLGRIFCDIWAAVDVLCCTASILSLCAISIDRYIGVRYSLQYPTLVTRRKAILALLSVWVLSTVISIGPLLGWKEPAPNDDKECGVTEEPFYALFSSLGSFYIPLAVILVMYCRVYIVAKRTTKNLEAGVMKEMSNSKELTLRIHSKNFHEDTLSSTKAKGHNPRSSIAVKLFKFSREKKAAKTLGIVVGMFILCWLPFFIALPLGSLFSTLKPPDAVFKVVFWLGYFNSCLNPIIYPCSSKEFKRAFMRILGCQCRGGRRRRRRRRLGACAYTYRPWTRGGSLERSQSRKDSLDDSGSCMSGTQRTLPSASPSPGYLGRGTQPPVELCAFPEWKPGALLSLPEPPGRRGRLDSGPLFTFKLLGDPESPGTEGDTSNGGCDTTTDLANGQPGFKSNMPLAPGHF
T1 sequence (P23944 whole entry): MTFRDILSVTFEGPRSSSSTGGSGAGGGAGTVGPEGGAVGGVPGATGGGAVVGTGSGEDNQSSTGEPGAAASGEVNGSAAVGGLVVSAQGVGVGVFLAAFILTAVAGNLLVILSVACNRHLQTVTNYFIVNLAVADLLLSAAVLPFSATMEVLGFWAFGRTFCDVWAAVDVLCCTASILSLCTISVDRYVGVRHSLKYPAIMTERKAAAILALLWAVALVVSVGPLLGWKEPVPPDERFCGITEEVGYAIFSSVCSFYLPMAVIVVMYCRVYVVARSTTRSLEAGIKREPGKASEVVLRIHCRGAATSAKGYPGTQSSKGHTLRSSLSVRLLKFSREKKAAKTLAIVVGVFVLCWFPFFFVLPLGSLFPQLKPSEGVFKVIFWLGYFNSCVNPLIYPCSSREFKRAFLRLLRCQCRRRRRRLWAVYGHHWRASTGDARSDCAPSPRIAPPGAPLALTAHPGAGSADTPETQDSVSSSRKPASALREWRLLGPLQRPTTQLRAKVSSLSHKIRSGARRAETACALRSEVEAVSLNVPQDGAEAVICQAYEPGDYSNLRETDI
T1 sequence (P43140 whole entry): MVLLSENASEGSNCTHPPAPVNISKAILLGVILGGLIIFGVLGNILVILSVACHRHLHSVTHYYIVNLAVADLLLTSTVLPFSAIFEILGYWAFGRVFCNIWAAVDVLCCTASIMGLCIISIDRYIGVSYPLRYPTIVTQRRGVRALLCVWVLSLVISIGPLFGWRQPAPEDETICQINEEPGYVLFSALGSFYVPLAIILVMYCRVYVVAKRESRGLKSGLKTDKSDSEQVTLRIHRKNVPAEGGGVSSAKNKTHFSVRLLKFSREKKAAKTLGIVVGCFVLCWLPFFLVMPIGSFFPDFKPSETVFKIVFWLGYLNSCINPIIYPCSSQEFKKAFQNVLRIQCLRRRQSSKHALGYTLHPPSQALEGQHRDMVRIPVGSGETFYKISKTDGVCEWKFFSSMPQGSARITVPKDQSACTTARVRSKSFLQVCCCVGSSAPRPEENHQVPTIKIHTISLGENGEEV

D(2) dopamine receptor = D(2) dopamine receptor (Rattus norvegicus, UniProt P61169); experiment: Displacement of [3H]raclopride at Dopamine receptor D2 in brain striata (n=1); type: tissue-based
D(2) dopamine receptor, sequence (P61169 whole entry): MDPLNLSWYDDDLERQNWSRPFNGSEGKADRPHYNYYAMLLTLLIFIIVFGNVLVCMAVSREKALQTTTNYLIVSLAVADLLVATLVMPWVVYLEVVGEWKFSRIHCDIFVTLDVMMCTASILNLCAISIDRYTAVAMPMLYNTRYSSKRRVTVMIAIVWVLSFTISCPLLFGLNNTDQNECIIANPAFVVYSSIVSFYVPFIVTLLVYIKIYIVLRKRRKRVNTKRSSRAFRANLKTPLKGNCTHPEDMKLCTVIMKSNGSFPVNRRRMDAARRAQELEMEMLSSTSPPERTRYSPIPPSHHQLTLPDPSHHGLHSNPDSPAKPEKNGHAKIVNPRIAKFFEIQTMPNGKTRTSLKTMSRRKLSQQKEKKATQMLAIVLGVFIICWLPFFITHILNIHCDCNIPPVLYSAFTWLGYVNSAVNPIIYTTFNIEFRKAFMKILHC

[7] = target: Glutamate NMDA receptor; Grin1/Grin2a (Rattus norvegicus, UniProt P35439+Q00959); experiment: Concentration required for 50% Inhibition of responses at cloned NR1A/2A N-methyl-D-aspartate (NMDA) expressed in Xenopus oocytes; type: cell-based, Oocyte
Glutamate NMDA receptor; Grin1/Grin2a, sequence (Q00959 whole entry, looked up, other chains not shown): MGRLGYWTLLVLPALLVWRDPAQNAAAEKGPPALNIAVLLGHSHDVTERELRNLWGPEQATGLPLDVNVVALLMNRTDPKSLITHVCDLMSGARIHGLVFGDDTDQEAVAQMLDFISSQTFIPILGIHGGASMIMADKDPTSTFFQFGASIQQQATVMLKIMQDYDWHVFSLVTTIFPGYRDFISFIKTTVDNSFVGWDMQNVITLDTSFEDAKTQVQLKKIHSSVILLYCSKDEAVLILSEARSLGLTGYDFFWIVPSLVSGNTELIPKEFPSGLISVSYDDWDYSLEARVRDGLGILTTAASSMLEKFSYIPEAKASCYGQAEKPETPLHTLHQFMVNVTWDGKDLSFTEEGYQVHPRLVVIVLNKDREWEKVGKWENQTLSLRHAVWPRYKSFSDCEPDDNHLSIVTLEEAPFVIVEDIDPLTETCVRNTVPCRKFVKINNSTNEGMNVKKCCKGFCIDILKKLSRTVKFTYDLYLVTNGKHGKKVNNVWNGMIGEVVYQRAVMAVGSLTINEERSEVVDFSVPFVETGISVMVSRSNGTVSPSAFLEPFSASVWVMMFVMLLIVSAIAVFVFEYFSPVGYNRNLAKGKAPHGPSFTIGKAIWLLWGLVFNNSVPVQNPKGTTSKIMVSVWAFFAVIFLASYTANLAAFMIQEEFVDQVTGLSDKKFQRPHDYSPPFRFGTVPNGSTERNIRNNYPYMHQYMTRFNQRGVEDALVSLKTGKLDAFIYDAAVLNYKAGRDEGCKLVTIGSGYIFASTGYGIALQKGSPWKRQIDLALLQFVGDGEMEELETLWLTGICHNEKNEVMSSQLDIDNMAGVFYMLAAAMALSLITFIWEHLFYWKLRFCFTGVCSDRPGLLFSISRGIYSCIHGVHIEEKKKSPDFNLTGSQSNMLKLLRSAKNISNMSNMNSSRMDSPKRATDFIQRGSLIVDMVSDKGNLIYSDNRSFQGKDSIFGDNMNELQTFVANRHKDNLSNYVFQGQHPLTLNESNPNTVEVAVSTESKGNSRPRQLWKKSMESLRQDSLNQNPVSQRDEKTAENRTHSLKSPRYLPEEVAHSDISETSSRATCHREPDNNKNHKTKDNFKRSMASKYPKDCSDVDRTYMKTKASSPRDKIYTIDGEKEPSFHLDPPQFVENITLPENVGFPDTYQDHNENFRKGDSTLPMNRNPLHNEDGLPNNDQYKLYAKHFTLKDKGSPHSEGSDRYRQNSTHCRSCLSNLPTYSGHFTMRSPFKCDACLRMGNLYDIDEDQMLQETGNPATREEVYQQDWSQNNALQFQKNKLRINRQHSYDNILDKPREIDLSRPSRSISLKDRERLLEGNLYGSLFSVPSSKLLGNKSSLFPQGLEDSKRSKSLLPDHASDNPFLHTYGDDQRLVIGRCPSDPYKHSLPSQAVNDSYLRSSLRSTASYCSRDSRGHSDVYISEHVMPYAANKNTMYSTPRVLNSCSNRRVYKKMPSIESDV

[8] = target: T1, Adrenergic receptor alpha-1; experiment: Displacement of [3H]-prazosin at alpha-1 adrenergic receptor inat brain cortices (n=1)
Rattus norvegicus [9] = experiment: Lowest oral dose that shows significant potentiation of total contraversive rotations over 3 hr caused by L-DOPA (10mg/kg, sc) in 6-hydroxydopamine-lesioned rats (n=8) administered perorally; type: functional; conditions: read-out: MED
Rattus norvegicus [10] = experiment: Lowest oral dose that shows significant potentiation of total contraversive rotations over 3 hr caused by L-DOPA (10mg/kg, sc) in 6-hydroxydopamine-lesioned rats (n=8);administered perorally; type: functional; conditions: read-out: MED

Row | Compound | IC50 [1] | IC50 [2] | IC50 [3] | IC50 (D(2) dopamine receptor) | other results
1 | O=c1[nH]c2ccc(C#CCCN3CCC(Cc4ccccc4)CC3)cc2o1 | 0.12 µM | > 100 µM | 39 µM | – | –
2 | C(#Cc1ccc2[nH]ccc2c1)CN1CCC(Cc2ccccc2)CC1 | 15 µM | > 100 µM | > 100 µM | – | –
3 | O=C1Nc2ccc(C#CCCN3CCC(Cc4ccccc4)CC3)cc2C1=O | 1.8 µM | – | 57 µM | – | IC50 [4]: > 100 µM
4 | Cn1c(=O)[nH]c2cc(C#CCN3CCC(Cc4ccccc4)CC3)ccc21 | 62 µM | > 100 µM | 89 µM | – | –
5 | C(#Cc1ccc2nn[nH]c2c1)CCN1CCC(Cc2ccccc2)CC1 | 0.22 µM | > 100 µM | > 100 µM | – | –
6 | C(#Cc1ccc2[nH]ncc2c1)CN1CCC(Cc2ccccc2)CC1 | 0.38 µM | > 100 µM | > 100 µM | – | –
7 | Cn1c(=O)[nH]c2ccc(C#CCN3CCC(Cc4ccccc4)CC3)cc21 | – | > 100 µM | – | – | –
8 | O=C1Cc2cc(C#CCCN3CCC(Cc4ccccc4)CC3)ccc2N1 | 0.32 µM | > 100 µM | 52 µM | – | –
9 | C(#Cc1ccc2[nH]nnc2c1)CN1CCC(Cc2ccccc2)CC1 | 0.42 µM | > 100 µM | > 100 µM | – | –
10 | S=c1[nH]c2ccc(C#CCCN3CCC(Cc4ccccc4)CC3)cc2[nH]1 | 0.18 µM | > 100 µM | 75 µM | – | –
11 | S=c1[nH]c2ccc(C#CCN3CCC(Cc4ccccc4)CC3)cc2[nH]1 | 0.016 µM | > 100 µM | 25 µM | – | –
12 | O=C1Cc2cc(C#CCN3CCC(Cc4ccccc4)CC3)ccc2N1 | 0.11 µM | > 100 µM | > 100 µM | – | –
13 | Oc1nc2cc(C#CCN3CCC(Cc4ccccc4)CC3)ccc2[nH]1 | – | – | – | 2.6 µM | minimal effective dose (Rattus norvegicus [5]): 10 mg/kg; IC50 [6]: 0.5 µM
14 | C(#Cc1ccc2cc[nH]c2c1)CCN1CCC(Cc2ccccc2)CC1 | – | – | – | – | IC50 [4]: > 100 µM; IC50 [7]: > 100 µM
15 | O=c1[nH]c2ccc(C#CCCN3CCC(Cc4ccccc4)CC3)cc2[nH]1 | 0.089 µM | > 100 µM | 39 µM | – | –
16 | Oc1nc2cc(C#CCN3CCC(Cc4ccc(F)cc4)CC3)ccc2[nH]1 | 0.0082 µM | > 100 µM | 38 µM | 1.7 µM | minimal effective dose (Rattus norvegicus [5]): 30 mg/kg; IC50 [6]: 1.2 µM
17 | Oc1nc2cc(C#CCN3CCC(O)(Cc4ccc(F)cc4)CC3)ccc2[nH]1 | – | – | – | 41 µM | IC50 [8]: 18 µM; minimal effective dose (Rattus norvegicus [9]): > 30 mg/kg
18 | Oc1nc2cc(C#CCN3CCC(Cc4cccc(F)c4)CC3)ccc2[nH]1 | 0.0061 µM | > 100 µM | > 100 µM | 3.9 µM | minimal effective dose (Rattus norvegicus [5]): > 30 mg/kg; IC50 [6]: 0.7 µM
19 | C(#Cc1ccc2[nH]ncc2c1)CCN1CCC(Cc2ccccc2)CC1 | 0.25 µM | > 100 µM | 95 µM | – | –
20 | O=C1COc2cc(C#CCCN3CCC(Cc4ccccc4)CC3)ccc2N1 | 1.1 µM | > 100 µM | > 100 µM | – | –
21 | Oc1nc2cc(C#CCN3CCC(Cc4ccc(Cl)cc4)CC3)ccc2[nH]1 | 0.019 µM | – | – | 3.7 µM | minimal effective dose (Rattus norvegicus [10]): 30 mg/kg; IC50 [6]: 5.8 µM
22 | Oc1nc2ccc(C#CCN3CCC(Cc4ccccc4)CC3)cc2o1 | 0.049 µM | – | – | – | –
23 | COc1ccc(CC2CCN(CC#Cc3ccc4[nH]c(O)nc4c3)CC2)cc1 | 0.026 µM | > 100 µM | > 100 µM | 9.9 µM | minimal effective dose (Rattus norvegicus [5]): > 30 mg/kg; IC50 [6]: 17 µM
24 | Oc1nc2cc(C#CCN3CCC(O)(Cc4ccccc4)CC3)ccc2[nH]1 | 0.019 µM | > 100 µM | > 100 µM | 86 µM | IC50 [6]: 55 µM
25 | Cc1ccc(CC2CCN(CC#Cc3ccc4[nH]c(O)nc4c3)CC2)cc1 | 0.017 µM | – | – | 14 µM | minimal effective dose (Rattus norvegicus [5]): 30 mg/kg; IC50 [6]: 3.1 µM
26 | Oc1ccc(C#CCN2CCC(Cc3ccccc3)CC2)cc1 | – | – | – | – | IC50 [4]: > 100 µM; IC50 [7]: > 100 µM
